Values after ≈ are worked out from the molar mass of the structure shown.
What was measured:
Assay type in all cases: functional
[1] = test system: Bacillus subtilis; assay: Antimicrobial activity against Bacillus subtilis ATCC9372 assessed as growth inhibition after 24 hrs by microdilution assay
[2] = test system: Escherichia coli; assay: Antimicrobial activity against Escherichia coli ATCC35218 assessed as growth inhibition after 24 hrs by microdilution assay
[3] = test system: Staphylococcus epidermidis; assay: Antimicrobial activity against Staphylococcus epidermis CCM628 assessed as growth inhibition after 24 hrs by microdilution assay
[4] = test system: Staphylococcus aureus; assay: Antimicrobial activity against Staphylococcus aureus ATCC12715 assessed as growth inhibition after 24 hrs by microdilution assay
[5] = test system: Candida albicans; assay: Antimicrobial activity against Candida albicans SC5314 assessed as growth inhibition after 24 hrs by microdilution assay

SMILES | MIC [1] | MIC [2] | MIC [3] | MIC [4] | MIC [5]
C=C(NC(=O)C(=C)NC(=O)c1csc([C@H]2CC[C@]34NC(=O)C(=C)NC(=O)C(=C)NC(=O)C(=C)NC(=O)[C@H](C)N[C@@H]5C=Cc6c([C@H](C)O)cc(nc6[C@H]5O)C(=O)O[C@H](C)[C@H](NC(=O)c5csc(n5)[C@H]([C@@](C)(O)[C@H](C)O)NC(=O)[C@H]5CSC(=N5)/C(=C/C)NC(=O)[C@H]([C@@H](C)O)NC(=O)c5csc3n5)c3nc(cs3)[C@H]4N2)n1)C(=O)O | 8 µg/mL (≈ 4.93 µM) | > 64 µg/mL | 2 µg/mL (≈ 1.23 µM) | 8 µg/mL (≈ 4.93 µM) | > 64 µg/mL
C[C@@H]1[C@H](O)[C@@H](C)/C=C/C=C/C=C/C=C/C=C/C=C/C=C/[C@H](O[C@@H]2O[C@H](C)[C@@H](O)[C@H](N)[C@@H]2O)C[C@@H]2O[C@](O)(C[C@@H](O)C[C@@H](O)[C@H](O)CC[C@@H](O)C[C@@H](O)CC(=O)O[C@H]1C)C[C@H](O)[C@H]2C(=O)O [AMPHOTERICIN B] | > 64 µg/mL | > 64 µg/mL | > 64 µg/mL | > 64 µg/mL | 0.25 µg/mL (≈ 0.271 µM)
O=C(O)c1cn(C2CC2)c2cc(N3CCNCC3)c(F)cc2c1=O [CIPROFLOXACIN] | 0.06 µg/mL (≈ 0.181 µM) | < 0.01 µg/mL | 0.06 µg/mL (≈ 0.181 µM) | 0.06 µg/mL (≈ 0.181 µM) | > 64 µg/mL

More lines, in order of falling MIC [1], values ahead:

MIC [1] | MIC [2] | MIC [3] | MIC [4] | MIC [5] | SMILES
1 µg/mL (≈ 0.667 µM) | > 64 µg/mL | 0.5 µg/mL (≈ 0.334 µM) | 1 µg/mL (≈ 0.667 µM) | > 64 µg/mL | C=C1NC(=O)C(=C)NC(=O)[C@H](C)N[C@@H]2C=Cc3c([C@H](C)O)cc(nc3[C@H]2O)C(=O)O[C@H](C)[C@@H]2NC(=S)c3csc(n3)[C@H]([C@@](C)(O)[C@H](C)O)NC(=O)[C@H]3CSC(=N3)/C(=C/C)NC(=O)[C@H]([C@@H](C)O)NC(=O)c3csc(n3)[C@]3(CC[C@H](c4nc(C(N)=O)cs4)N[C@@H]3c3csc2n3)NC(=O)C(=C)NC1=O
1 µg/mL (≈ 0.638 µM) | > 64 µg/mL | 0.5 µg/mL (≈ 0.319 µM) | 2 µg/mL (≈ 1.28 µM) | > 64 µg/mL | C=C(NC(=O)c1csc([C@H]2CC[C@]34NC(=O)C(=C)NC(=O)C(=C)NC(=O)C(=C)NC(=O)[C@H](C)N[C@@H]5C=Cc6c([C@H](C)O)cc(nc6[C@H]5O)C(=O)O[C@H](C)[C@H](NC(=S)c5csc(n5)[C@H]([C@@](C)(O)[C@H](C)O)NC(=O)[C@H]5CSC(=N5)/C(=C/C)NC(=O)[C@H]([C@@H](C)O)NC(=O)c5csc3n5)c3nc(cs3)[C@H]4N2)n1)C(N)=O
0.25 µg/mL (≈ 0.153 µM) | > 64 µg/mL | 0.25 µg/mL (≈ 0.153 µM) | 0.5 µg/mL (≈ 0.305 µM) | > 64 µg/mL | C=C(NC(=O)C(=C)NC(=O)c1csc([C@H]2CC[C@]34NC(=O)C(=C)NC(=O)C(=C)NC(=O)C(=C)NC(=O)[C@H](C)N[C@@H]5C=Cc6c([C@H](C)O)cc(nc6[C@H]5O)C(=O)O[C@H](C)[C@H](NC(=S)c5csc(n5)[C@H]([C@@](C)(O)[C@H](C)O)NC(=O)[C@H]5CSC(=N5)/C(=C/C)NC(=O)[C@H]([C@@H](C)O)NC(=O)c5csc3n5)c3nc(cs3)[C@H]4N2)n1)C(=O)O
0.06 µg/mL (≈ 0.036 µM) | > 64 µg/mL | < 0.01 µg/mL | 0.06 µg/mL (≈ 0.036 µM) | > 64 µg/mL | C=C(NC(=O)C(=C)NC(=O)c1csc(C2=N[C@@H]3c4csc(n4)[C@H]4NC(=O)c5csc(n5)[C@H]([C@@](C)(O)[C@H](C)O)NC(=O)[C@H]5CSC(=N5)/C(=C/C)NC(=O)[C@H]([C@@H](C)O)NC(=O)c5csc(n5)[C@]3(CC2)NC(=O)[C@H](C)NC(=O)C(=C)NC(=O)[C@H](C)NC(=O)[C@H]([C@@H](C)CC)N[C@@H]2C=Cc3c([C@H](C)O)cc(nc3[C@H]2O)C(=O)O[C@@H]4C)n1)C(N)=O

Reference: ChEMBL document CHEMBL4842307, “Targeted Isolation of Saalfelduracin B-D from Amycolatopsis saalfeldensis Using LC-MS/MS-Based Molecular Networking” (2021)
